Here are results for 18 molecules from the OPERA property sets (Mansouri et al. 2018).

In brackets after ≈: the same amount, converted by molar mass.

A word on the solubility: it is the concentration that dissolves in the medium under given conditions.

On to `O=C1c2ccc(O)cc2C(=O)c2ccc(O)cc21`, for which, under “25 °C”, the solubility is 0.00129 mM (≈ 0.31 µg/mL).
Still for that read-out and setting: for `O=C(O)c1ccccc1Br` the value was 9.23 mM (≈ 1860 µg/mL).
Still for that read-out and setting: for `O=C1c2ccccc2C(=O)c2cc(O)ccc21` the value was 0.00491 mM (≈ 1.1 µg/mL).
For the setting “20 °C”, `CCCOC(C)=O` registered a solubility of 185 mM (≈ 18900 µg/mL).
Under “25 °C”, `CCCCCCCCC(C(=O)O)C(=O)O` showed a solubility of 1.2 mM (≈ 260 µg/mL).
On the same count and under the same terms, for `Cc1cccc(S(N)(=O)=O)c1` the value was 45.6 mM (≈ 7810 µg/mL); for `COc1ccc(C=CC(=O)O)cc1`, 5.15 mM (≈ 918 µg/mL).
For `COC(C)=O`, for the setting “20 °C”, the solubility is 3280 mM (≈ 243000 µg/mL).
`CC(C)c1ccc(C(=O)O)cc1` showed a solubility (25 °C) of 0.92 mM (≈ 151 µg/mL).
The molecule `O=C(O)C=Cc1cccc(Br)c1` came in with a solubility (25 °C) of 2.31 mM (≈ 525 µg/mL).
On to `CCOC(=O)CCCCC(=O)OCC`, for which the solubility (20 °C) is 20.9 mM (≈ 4230 µg/mL).
With `O=C(O)c1ccc(I)cc1`, the solubility (25 °C) was 0.109 mM (≈ 27 µg/mL).
Regarding `CC(=O)OC(C)C`, the solubility (20 °C) came out at 303 mM (≈ 30900 µg/mL).
The same measure, in the same setting: for `CC(Cl)C(Cl)(Cl)C(O)O` (stereo not drawn) the value was 136 mM (≈ 26300 µg/mL).
In the case of `CC(=O)Nc1ccc([N+](=O)[O-])cc1`, the solubility (25 °C) is 12.2 mM (≈ 2200 µg/mL).
Regarding `C[C@H]1C[C@@H](OC(=O)c2ccccc2)CC(C)(C)N1`, the solubility (20 °C) is 12 mM (≈ 2960 µg/mL).
`O=C(O)/C=C/c1ccc2c(c1)OCO2` showed a solubility (25 °C) of 0.141 mM (≈ 27 µg/mL).
On to `F[P-](F)(F)(F)(F)F.N#[N+]c1ccccc1`, for which the solubility (20 °C) was determined as 36 mM.
